Results on four compounds are retold here after patent US20100152302A1, “NOVEL CRYSTALLINE FORMS OF ATOVAQUONE” (HETERO DRUGS LIMITED, priority 2007, published 2010).

Values joined by “and” are separate entries in the source; they are usually repeats but may differ in a detail not shown here. Equal entries are not always repeated.

For series [1] the following is noted: cited from earlier work.
Series [2] can be described thus: Specific surface area by B.E.T. nitrogen absorption analysis. Type of series: physicochemical. The conditions noted are these: isolated crystalline solid of the example, after drying or spray drying. The source says:
Specific surface area is defined in units of square meters per gram (m^2/g). It is usually measured by nitrogen absorption analysis. In this analysis, nitrogen is absorbed on the surface of the substance. The amount of the absorbed nitrogen (as measured during the absorption or the subsequent desorption process) is related to the surface area via a formula known as the B.E.T. formula.

For the compound `O=C1C(O)=C([C@H]2CC[C@H](c3ccc(Cl)cc3)CC2)C(=O)c2ccccc21` [Atovaquone, trans-2-[4-(4-chlorophenyl)cyclohexyl]-3-hydroxy-1,4-naphthoquinone], the solubility in chloroform result in series [1] (chloroform) is recorded as “soluble”. Moreover, in series [1] (water), the solubility in water entry is recorded as “practically insoluble”. As to `O=C1C(O)=C([C@H]2CC[C@H](c3ccc(Cl)cc3)CC2)C(=O)c2ccccc21` [atovaquone Form I, trans-2-[4-(4-chlorophenyl)cyclohexyl]-3-hydroxy-1,4-naphthoquinone], the “Specific Surface Area” value in series [2] is recorded as 0.54 m^2/g.

Turning to `O=C1C(O)=C([C@H]2CC[C@H](c3ccc(Cl)cc3)CC2)C(=O)c2ccccc21` [atovaquone crystalline form A, trans-2-[4-(4-chlorophenyl)cyclohexyl]-3-hydroxy-1,4-naphthoquinone], in series [2], the “Specific Surface Area” value came to 0.76 m^2/g. `O=C1C(O)=C([C@H]2CC[C@H](c3ccc(Cl)cc3)CC2)C(=O)c2ccccc21` [atovaquone crystalline form B, trans-2-[4-(4-chlorophenyl)cyclohexyl]-3-hydroxy-1,4-naphthoquinone]: in series [2], the “Specific Surface Area” value is 2.84 m^2/g and 3.12 m^2/g.
